Assays:
[1] = test system: ID-8 tumor xenograft; assay: Ovarian ID-8 tumor xenograft in C57BL6 mice; assay type: in vivo; conditions: ID-8, 20 mg/kg IP daily
From the text: An immunocompetent syngeneic mouse model was used to evaluate in vivo antitumor effect of SU093 and SU056 (also referred to herein as Compound (I)) for ovarian cancer. C57BL6 female mice (n=5/group) were subcutaneously injected in the right flank with 5×10^6 ID-8 cells mixed with matrigel. From the day following xenograft implantation, mice were monitored regularly for tumor growth and once the tumors reached approximately 100 mm^3, the mice were randomly divided into three groups and respective treatments were given.
Group I (vehicle control): 100 μl of 10% PEG300 (w/v) in saline;
Group II: mice treated with SU093 (20 mg/kg); and
Group III: mice treated with SU056 (20 mg/kg).
Doses were administered intraperitoneally (IP) for 7 days/week for 42 days and the mice were sacrificed on day 43. Tumor sizes were measured twice weekly using digital caliper and tumor volume was calculated by the formula: 0.5236 L1 (L2)^2, where L1 is long diameter, and L2 is short diameter.

[2] = test system: GBP1; assay: cell-based reporter assay, OVCAR-8 stably transfected with GBP-1-luciferase; conditions: OVCAR-8 GBP-1-luciferase
From the text: Exemplary compounds (1)-(17) and previously identified compound SU093 (Andreoli, M., Persico, M.; Kumar, A.; Orteca, N.; Kumar, V.; Pepe, A.; Mahalingam, S.; Alegria, A. E.; Petrella, L.; Sevciunaite, L.; Camperchioli, A.; Mariani, M.; Di Dato, A.; Novellino, E.; Scambia, G., Malhotra, S. V.; Ferlini, C.; Fattorusso, C., Identification of the First Inhibitor of the GBP1:PIM1 Interaction. Implications for the Development of a New Class of Anticancer Agents against Paclitaxel Resistant Cancer Cells. Journal of Medicinal Chemistry 2014, 57 (19), 7916-7932) were tested for GBP1 inhibition using a cell-based reporter assay in ovarian cancer cell line OVCAR-8 stably transfected with GBP-1-luciferase. Tables 1 and 2 below outlines the percentage of GBP1 expression in OVCAR-8 cells for each of the 17 compounds tested.

[3] = test system: SCC-90 tumor xenograft; assay: Head and neck SCC-90 tumor xenograft in nude mice; assay type: in vivo; conditions: SCC-90, nude mice
Protocol: An immunodeficient nude mice model was also used to study the in vivo potential of SU093 and SU056 for head and neck cancer. Nude mice (n=3/group) were subcutaneously injected in the right flank with 5×10^6 SCC-90 cells mixed with matrigel and observed regularly until the tumor size reached about 200 mm^3. The treatment regime with drugs including dose, formulation and route of delivery was similar to ovarian cancer study discussed above. Doses of SU093 and SU056 were administered daily until 35 days and mice were sacrificed thereafter. […] At the end of 35 days, calculated tumor volume/mouse was 860.33±21.78 mm^3, 694.67±14.64 mm^3, and 435.00±10.81 mm^3 for control, SU093 and SU056 treatment groups, respectively. This equates to a 20% and 50% reduction in tumor volume for SU093 and SU056 treatment groups, respectively. A decrease in tumor weight of about 21% (P value not significant) and 54% (P<0.002) was also observed for the SU093 and SU56 treatment groups, respectively.

## O=C1OCC2=C1C(c1cccc(F)c1)c1cc3c(cc1N2CCO)OCO3 (centres unmarked) [SU056]
[1]; 42 days, vs control
  reduction in tumor volume: 49.55%
  tumor weight decreased: 53.44%
[1]; end of 6 weeks
  tumor volume/mouse: 257.39±21.6 mm^3
[2]; 5 nM
  % GBP1 expression OVCAR-8 @5 nM: 54.16%
[2]; 10 nM
  % GBP1 expression OVCAR-8 @10 nM: 43.36%
[3]; 20 mg/kg IP daily, end of 35 days
  tumor volume/mouse: 435.00±10.81 mm^3
[3]; 35 days, vs control
  decrease in tumor weight: ~54%
  reduction in tumor volume: 50%
